Results taken from patent publication US10214765B2, “Cell-permeable probes for identification and imaging of sialidases” (Academina Sinica, priority 2012, dated 2019).
Where two headings read alike, the source gives them in different places.

Tested on: oseltamivir-sensitive (WSN^274H) and oseltamivir-resistant (WSN^274Y) H1N1 influenza viruses
Assay type: binding, H1N1 influenza virus

## C#CCCC(=O)NC1C(O)C(F)C(F)(C(=O)O)OC1[C@H](O)[C@H](O)CO (stereo partly drawn) [DFSA-5-yne, 5-(Pent-4-ynamido)-2,3,5-trideoxy-3-fluoro-D-erythro-β-L-manno-non-2-ulopyranosylonic fluoride]
In the absence of OS
  labeling of OS^s and OS^r H1N1 influenza viruses: labeled
In the presence of competing OS
  labeling of OS^s and OS^r H1N1 influenza viruses: only the OS^r virus was detectable
